What was measured:
[1] = biological target: formation of EETs and DiHETs (epoxygenase activity) in HLM; test: Selectivity: inhibition of EETs and DiHETs formation (epoxygenase activity) in HLM; type: biochemical, human; conditions: for IC50: sum of EETs and DiHETs
Method: Selectivity of compounds for inhibition of 20-HETE formation vs inhibition of formation of 8,9-, 11,12-, 14,15-EET and 5,6-, 8,9-, 11,12-, 14,15-DiHETs was assessed via the simultaneous monitor of formation of 20-HETE and those metabolites under the UPLC-MS/MS assay conditions described above using HLM incubations and the same 12 test compound concentrations (0.1 nM-[…]) used for the IC50 determination experiments. At each of the 12 concentrations, the selectivity of 20-HETE inhibition over the other metabolites was compared. Epoxygenase activity was assessed by the sum of EETs and DiHETEs as percentage of control.

MDR1 (P-gp) = test: BBB penetration potential, MDR1-MDCK permeability; type: in vitro ADME; conditions: dog; for Papp A→B at 120 min, 5 μM: apical to basolateral, pH 7.4, read-out: BBB penetration potential MDCK A-B 10−6 cm/s; for Papp B→A at 120 min, 5 μM: basolateral to apical, pH 7.4, read-out: BBB penetration potential MDCK B-A 10−6 cm/s
Method: BBB penetration potential assessment data in Table 1 was obtained as follows. MDR1-MDCK cell monolayers were grown to confluence on collagen-coated, microporous membranes in 12-well assay plates. Atenolol, propranolol and digoxin were used as control to assess plate quality. The permeability assay buffer was Hanks' balanced salt solution containing 10 mM HEPES and 15 mM glucose at a pH of 7.4. The buffer in the receiver chamber also contained 1% bovine serum albumin. The dosing solution concentration was 5 μM of test article in the assay buffer. Cell monolayers were dosed on the apical side (A-to-B) or basolateral side (B-to-A) and incubated at 37° C. with 5% CO2 in a humidified incubator. Samples were taken from the donor and receiver chambers at 120 minutes. Each determination was performed in duplicate the flux of lucifer yellow was also measured post-experimentally for each monolayer to ensure no damage was inflicted to the cell monolayers during the flux period. All samples were assayed by LC-MS/MS using electrospray ionization using a PE SCIEX API 4000 spectrometer and total run time of 1 min. Analytical method/conditions were: Liquid Chromatography Column: Waters ACQUITY UPLC BEH Phenyl 30×2.1 mm, 1.7 m; M.P. Buffer: 25 mM ammonium formate buffer, pH 3.5; Aqueous Reservoir (A): 90% water, 10% buffer; Organic Reservoir (B): 90% acetonitrile, 10% buffer; Flow Rate: 0.7 mL/minute; gradient program: 99% A (t=0 min), 1% A (t=0.65 min), 1% A (t=0.75 min), 99% A (t=0.8 min), 99% A (t=1 min); 5 μL injection volume
The apparent permeability (Papp) and percent recovery were calculated as follows: Papp=(dCr/dt)×Vr/(A×CA) (1) Percent Recovery=100×((Vr×Cr^final)+(Vd×Cd^final))/(Vd×CN) (2)
wherein: • dCr/dt is the slope of the cumulative concentration in the receiver compartment versus time in μMs^−1; • Vr is the volume of the receiver compartment in cm^3; • Vd is the volume of the donor compartment in cm^3; • A is the area of the insert (1.13 cm^2 for 12-well); • CA is the average of the nominal dosing concentration and the measured 120 minute donor concentration in μM; • CN is the nominal concentration of the dosing solution in μM; • Cr^final is the cumulative receiver concentration in μM at the end of the incubation period; • Cd^final is the concentration of the donor in μM at the end of the incubation period. Efflux ratio (ER) is defined as Papp (B-to-A)/Papp (A-to-B) Interpretation Brain Penetration Potential Classification: • Papp (A-to-B)≥3.0 and ER<3.0: High • Papp (A-to-B)≥3.0 and 10>ER≥3.0: Moderate • Papp (A-to-B)≥3.0 and ER≥10, or Papp (A-to-B)<3.0 Low

IC50 [1] [µM] | Papp A→B at 120 min, 5 μM (MDR1 (P-gp)) [×10⁻⁶ cm/s] | Papp B→A at 120 min, 5 μM (MDR1 (P-gp)) [×10⁻⁶ cm/s] | EETs Inhibition, % @ 50,000 ([1]; at 50,000 (nM per column head)) | EETs Inhibition, % @ 10 μM ([1]; at 10 μM) [% @ 10 μM] | SMILES
 | 60.1 | 48.6 |  |  | Cc1cccc(C2CCN(c3cn[nH]c3)CC2)c1 [Compound 34, 1-(1H-Pyrazol-4-yl)-4-(m-tolyl)piperidine]
> 50 |  |  |  |  | c1ccc(C2CCN(c3ccn[nH]3)CC2)cc1 [Compound 54, 4-Phenyl-1-(1H-pyrazol-5-yl)piperidine]
> 0.05 | 5.16 | 41.6 |  |  | O=C1CCCN1Cc1ccc(C2CCN(c3cn[nH]c3)CC2)cc1 [Compound 83, 1-(4-(1-(1H-Pyrazol-4-yl)piperidin-4-yl)benzyl)pyrrolidin-2-one]
 | 44.3 | 40 |  | 50 | Clc1ccc(CC2CCN(c3cn[nH]c3)CC2)cc1 [Compound 93, 4-(4-Chlorobenzyl)-1-(1H-pyrazol-4-yl)piperidine]
> 0.05 | 22.2 | 46.9 |  |  | O=C1CCCN1c1ccc(C2CCN(c3cn[nH]c3)CC2)cc1 [Compound 100, 1-(4-(1-(1H-Pyrazol-4-yl)piperidin-4-yl)phenyl)pyrrolidin-2-one]

More lines, now with the values behind:

SMILES | IC50 [1] [µM] | Papp A→B at 120 min, 5 μM (MDR1 (P-gp)) [×10⁻⁶ cm/s] | Papp B→A at 120 min, 5 μM (MDR1 (P-gp)) [×10⁻⁶ cm/s] | EETs Inhibition, % @ 50,000 ([1]; at 50,000 (nM per column head)) | EETs Inhibition, % @ 10 μM ([1]; at 10 μM) [% @ 10 μM]
c1ccc(C2CCN(c3cn[nH]c3)CC2)cc1 [Compound 1, 4-Phenyl-1-(1H-pyrazol-4-yl)piperidine] | > 10 |  |  |  | 
c1ccc(CC2CCN(c3cn[nH]c3)CC2)cc1 [Compound 3, 4-Benzyl-1-(1H-pyrazol-4-yl)piperidine] | > 25 | 62 | 60 |  | 
COc1ccc(C2CCN(c3ccn[nH]3)CC2)cc1 [Compound 19, 4-(4-Methoxyphenyl)-1-(1H-pyrazol-5-yl)piperidine] | > 25 |  |  |  | 
COc1ccc(C2CCN(c3cn[nH]c3)CC2)cc1 [Compound 20, 4-(4-Methoxyphenyl)-1-(1H-pyrazol-4-yl)piperidine] |  | 32 | 25.7 | 3.1%@ 50,000 | 
CC(=O)N(C)c1ccc(C2CCN(c3cn[nH]c3)CC2)cc1 [Compound 28, N-(4-(1-(1H-Pyrazol-4-yl)piperidin-4-yl)phenyl)-N-methylacetamide] |  | 18.4 | 40.2 |  | 
